Reference: ChEMBL document CHEMBL1201862, “PubChem BioAssay data set” (2004)
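Growth conditions: 96-well plates. Treatment: test compound, 48 hours, 5 concentrations. Analysis: linear interpolation between bracketing concentrations; unreached endpoints set to highest concentration. GI50 = concentration required for 50% inhibition of growth.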 Calls of active or inactive are those of the source. Rule as the data show it: active = GI50 up to about 1.1 µM and inactive = higher.

Experiments:
Assay in all cases: inhibition of tumour cell growth, NCI panel, 48 h
SF-268 = test system: SF-268
786-0 = test system: 786-0
HCT-15 = test system: HCT-15
UACC-257 = test system: UACC-257
ACHN = test system: ACHN
SK-OV-3 = test system: SK-OV-3
HOP-92 = test system: HOP-92
HT-29 = test system: HT-29
MOLT-4 = test system: MOLT-4
SF-539 = test system: SF-539
RPMI-8226 = test system: RPMI-8226
SF-295 = test system: SF-295
CAKI-1 = test system: CAKI-1
UACC-62 = test system: UACC-62
K562 = test system: K562
RXF 393 = test system: RXF 393

Row | Structure (SMILES) | GI50 (SF-268) | GI50 (786-0) | GI50 (HCT-15) [µM] | GI50 (UACC-257) | GI50 (ACHN) | GI50 (SK-OV-3) | GI50 (HOP-92) | GI50 (HT-29) | GI50 (MOLT-4) | GI50 (SF-539) | GI50 (RPMI-8226) | GI50 (SF-295) | GI50 (CAKI-1) | GI50 (UACC-62) | GI50 (K562) | GI50 (RXF 393)
1 | O=C(O)CSc1nnc(COc2ccccc2)n1-c1ccccc1 | > 100 µM (inactive) | > 100 µM (inactive) | > 100 | > 100 µM (inactive) | > 100 µM (inactive) | > 100 µM (inactive) | > 100 µM (inactive) | > 100 µM (inactive) | > 100 µM (inactive) | > 100 µM (inactive) | > 100 µM (inactive) | > 100 µM (inactive) |  |  |  | 
2 | Cc1ccc(NC(=O)CC2SC(=N)NC2=O)cc1C (stereo not given) | > 100 µM (inactive) | > 100 µM (inactive) | > 100 | > 100 µM (inactive) | > 100 µM (inactive) | > 100 µM (inactive) | > 100 µM (inactive) | > 100 µM (inactive) | > 100 µM (inactive) | > 100 µM (inactive) | > 100 µM (inactive) | > 100 µM (inactive) | > 100 µM (inactive) | > 100 µM (inactive) | > 100 µM (inactive) | 
3 | COc1ccc2[nH]c3c(c2c1)[C@H](c1ccccc1)C[C@@H]1C(=O)N(c2ccccc2)C(=O)[C@H]31 | > 100 µM (inactive) | 17.5 µM (inactive) | 41.7 | > 100 µM (inactive) | 22.1 µM (inactive) | 23.3 µM (inactive) | 37.3 µM (inactive) |  | 15.1 µM (inactive) | > 100 µM (inactive) |  | 48.4 µM (inactive) | 25.6 µM (inactive) | > 100 µM (inactive) | 47.9 µM (inactive) | 16 µM (inactive)
4 | C[N+]1=C(c2cccnc2/C=N/O)OCC1(C)C | > 100 µM (inactive) | > 100 µM (inactive) | > 100 | > 100 µM (inactive) | > 100 µM (inactive) | > 100 µM (inactive) | > 100 µM (inactive) | > 100 µM (inactive) | > 100 µM (inactive) | > 100 µM (inactive) |  | > 100 µM (inactive) | > 100 µM (inactive) | > 100 µM (inactive) | > 100 µM (inactive) | > 100 µM (inactive)
5 | COc1ccc(C2c3cc(OC)c(OC)cc3C(Cc3ccc([N+](=O)[O-])cc3)C2c2ccc([N+](=O)[O-])cc2)cc1OC (stereo not given) | > 100 µM (inactive) | > 100 µM (inactive) | > 100 | > 100 µM (inactive) | > 100 µM (inactive) |  | 0.879 µM (active) | > 100 µM (inactive) | > 100 µM (inactive) | > 100 µM (inactive) | > 100 µM (inactive) | > 100 µM (inactive) | > 100 µM (inactive) | > 100 µM (inactive) | > 100 µM (inactive) | 27.7 µM (inactive)
6 | N#CC(C#N)=c1[nH]c2cccc3c2-c2c(cccc2c3=C(C#N)C#N)[nH]1 | > 100 µM (inactive) | > 100 µM (inactive) | > 100 | > 100 µM (inactive) |  | > 100 µM (inactive) | > 100 µM (inactive) | > 100 µM (inactive) | > 100 µM (inactive) | > 100 µM (inactive) | > 100 µM (inactive) | > 100 µM (inactive) | > 100 µM (inactive) | > 100 µM (inactive) | > 100 µM (inactive) | 79.6 µM (inactive)
7 | COC(CN1C(=O)c2cccc3cccc(c23)C1=O)OC | > 100 µM (inactive) | > 100 µM (inactive) | 53.6 | 78.2 µM (inactive) | 41.5 µM (inactive) | > 100 µM (inactive) | 73.5 µM (inactive) | > 100 µM (inactive) | 32.3 µM (inactive) | 57.7 µM (inactive) | 52.6 µM (inactive) | > 100 µM (inactive) |  | 73.1 µM (inactive) | 68.5 µM (inactive) | > 100 µM (inactive)
8 | CC(=O)OCC1OC(N2C(=O)[C@@H](Oc3ccccc3)[C@H]2/C=C/c2ccccc2)C(OC(C)=O)C(OC(C)=O)C1OC(C)=O (stereo not given in full) | 72.4 µM (inactive) | > 100 µM (inactive) | > 100 | > 100 µM (inactive) | > 100 µM (inactive) | > 100 µM (inactive) | 44.5 µM (inactive) | > 100 µM (inactive) | > 100 µM (inactive) | > 100 µM (inactive) | > 100 µM (inactive) | 53.6 µM (inactive) |  | > 100 µM (inactive) | > 100 µM (inactive) | > 100 µM (inactive)
9 | NC(=S)N/N=C1\CCCC\C1=C/c1ccccc1 | 54 µM (inactive) | 63.8 µM (inactive) | 67.1 | 17.9 µM (inactive) | > 100 µM (inactive) | > 100 µM (inactive) | 47.2 µM (inactive) | 20 µM (inactive) | 19.6 µM (inactive) | 93.8 µM (inactive) | 15 µM (inactive) | > 100 µM (inactive) |  | 57.7 µM (inactive) | 2.71 µM (inactive) | 23.8 µM (inactive)
10 | COc1ccc2[nH]c3c(C)cc([N+](=O)[O-])c(C)c3c2c1 | 37.3 µM (inactive) | 21.8 µM (inactive) | 26.6 | 31.2 µM (inactive) | 22 µM (inactive) | 28.2 µM (inactive) | 28.4 µM (inactive) | 28.5 µM (inactive) | 20.5 µM (inactive) | 23.7 µM (inactive) | 17.7 µM (inactive) | 41.4 µM (inactive) | 19.4 µM (inactive) |  | 18.4 µM (inactive) | 19 µM (inactive)
11 | O=C(c1ccc(Cl)cc1Cl)C1[C@H]2C(=O)N(c3ccc(Cc4ccc(N5C(=O)[C@@H]6ON(c7ccccc7)C(C(=O)c7ccc(Cl)cc7Cl)[C@@H]6C5=O)cc4)cc3)C(=O)[C@H]2ON1c1ccccc1 (stereo not given in full) | > 50 µM (inactive) | > 50 µM (inactive) | > 50 | > 50 µM (inactive) | > 50 µM (inactive) | > 50 µM (inactive) |  | > 50 µM (inactive) | > 50 µM (inactive) | > 50 µM (inactive) | > 50 µM (inactive) | > 50 µM (inactive) | > 50 µM (inactive) | > 50 µM (inactive) | > 50 µM (inactive) | > 50 µM (inactive)
12 | CC(=O)NC(C=O)C(O[C@H](C)C(=O)NC(C)C(=O)NC(CCC(N)=O)C(=O)OCc1ccccc1)C(O)C(O)COC(=O)CCNc1c2ccccc2nc2cccc([N+](=O)[O-])c12 (stereo not given in full) | 1.79 µM (inactive) | 4.56 µM (inactive) | 11.4 | 7.46 µM (inactive) | 2.94 µM (inactive) |  | 2.31 µM (inactive) | 2.14 µM (inactive) | 3.57 µM (inactive) | 6.12 µM (inactive) | 1.63 µM (inactive) | 13.1 µM (inactive) | 1.45 µM (inactive) | 3.23 µM (inactive) | 2.51 µM (inactive) | 3.96 µM (inactive)
13 | CC(/C(=N\Nc1ccccc1)c1ccc(O)cc1)C1C(=O)Oc2ccccc21 (stereo not given) |  | > 100 µM (inactive) | > 100 | > 100 µM (inactive) | > 100 µM (inactive) |  |  | > 100 µM (inactive) | > 100 µM (inactive) | > 100 µM (inactive) | > 100 µM (inactive) | > 100 µM (inactive) | > 100 µM (inactive) | > 100 µM (inactive) | > 100 µM (inactive) | > 100 µM (inactive)
14 | COC(=O)CC1C[C@H](C#N)N(C(=O)c2ccccc2)C[C@@H]1CC[N+](=O)[O-] (stereo not given in full) | > 100 µM (inactive) | > 100 µM (inactive) | > 100 | > 100 µM (inactive) | > 100 µM (inactive) | > 100 µM (inactive) | > 100 µM (inactive) | > 100 µM (inactive) | > 100 µM (inactive) | > 100 µM (inactive) | > 100 µM (inactive) | > 100 µM (inactive) |  | > 100 µM (inactive) | > 100 µM (inactive) | > 100 µM (inactive)
15 | CC1CC[C@@]23CCC4(C)[C@@](C=CC5[C@@]6(C)CCC(=O)C(C)(C)C6CC[C@]54C)(OC2=O)[C@@H]3[C@H]1C (stereo not given in full) | 50.4 µM (inactive) | 24.3 µM (inactive) |  | 6.59 µM (inactive) | 12 µM (inactive) | 27.9 µM (inactive) | 15.9 µM (inactive) | 16.4 µM (inactive) | 7.29 µM (inactive) | 24.5 µM (inactive) |  | 18.8 µM (inactive) | 21.5 µM (inactive) | 12.2 µM (inactive) | 6.3 µM (inactive) | 14.1 µM (inactive)
16 | Cn1c(=O)nc2n(-c3cccc(F)c3)c3ccccc3nc-2c1=O | 43.3 µM (inactive) | 42 µM (inactive) | 16.6 | 12.8 µM (inactive) | 8 µM (inactive) | > 100 µM (inactive) |  | 5.92 µM (inactive) | 23.1 µM (inactive) | 25.4 µM (inactive) | 20.5 µM (inactive) | 24.9 µM (inactive) | 27.2 µM (inactive) | 3.12 µM (inactive) | 19.6 µM (inactive) | 67.9 µM (inactive)
17 | CCN(CC)C(=S)S [DITIOCARB SODIUM] | > 79.1 µM (inactive) | 67.9 µM (inactive) | > 62.5 | 21.2 µM (inactive) | 53.7 µM (inactive) | > 100 µM (inactive) | > 76.6 µM (inactive) | 0.216 µM (active) |  | > 60.4 µM (inactive) | 0.528 µM (active) | > 79.6 µM (inactive) |  | 0.388 µM (active) | 0.138 µM (active) | > 57.4 µM (inactive)
18 | COCC(O)Cn1ccnc1[N+](=O)[O-] (stereo not given) [MISONIDAZOLE] | > 100 µM (inactive) | > 100 µM (inactive) | > 100 | > 100 µM (inactive) | > 100 µM (inactive) | > 100 µM (inactive) |  | > 100 µM (inactive) | > 100 µM (inactive) | > 100 µM (inactive) | > 100 µM (inactive) | > 100 µM (inactive) | > 100 µM (inactive) |  | > 100 µM (inactive) | 
